Measured values from US20260014132A1, “PROTEASE ACTIVATED RECEPTOR 2 (PAR2) INHIBITOR AND ITS USES” (UNIVERSITÀ DEGLI STUDI DI PADOVA, priority 2022, published 2026).

How the values were obtained:
PAR2 [1] = experiment: PAR2 mRNA expression (qPCR) in LPS-stimulated THP-1 cells; assay type: cell-based, human
Protocol: (§1) In order to evaluate the effect of 1-Piperidin Propionic acid on the transcriptional activity of the membrane receptor Protease Activated Receptor-2 (PAR2), monocyte-derived cell line THP-1 was used. The cells were incubated with LPS, known to induce PAR2 expression in this cell compartment, at a concentration of 1 ng/ml, or with medium alone, as a control, for 2 hours with 1-PPA at a concentration of 1 ng/ml and 100 ng/ml. In further experiments transfected HepG2 cells were used transiently with plasmid containing the human PAR2 sequence by Lipofectamy. These cells were incubated with medium alone, as a control, or with increasing concentrations of 1-PPA, as described above. Cell extracts from both lines were then subjected to extraction of cellular RNA which was reverse transcribed into cDNA and amplified by qPCR.
(§2) Similar results were also obtained in transfected HepG2 cells transiently to overexpress PAR2.

PAR2 [2] = experiment: PAR2 mRNA expression (qPCR) in HepG2 cells transiently transfected to overexpress PAR2; assay type: cell-based, human
Protocol: as §1, §2

PAR2 [3] = experiment: Cellular Thermal Shift Assay (CETSA) and Western blot in lysates of HepG2 cells overexpressing PAR2; assay type: binding, human; settings: soluble fraction of extracts of HepG2 overexpressing PAR2, progressive increase in temperature
Excerpt: These interaction data between 1-PPA and PAR2 were also confirmed at the protein level, using the cellular thermal shift assay (CETSA) (Science 341 (6141): 84-87). This is a biophysical assay based on the principle of ligand-induced thermal stabilization of target proteins, as the melting temperature of proteins changes according to the interaction of the ligand.
This conformation was identified as level class 0, which is the highest scoring and most reliable analysis. […] In particular, HepG2 cells have been genetically modified to overexpress transiently PAR 2 using cDNA as expression plasmid 3.1. The soluble fraction of the cell extracts was then subjected to the CETSA test, in the presence or absence of 1-PPA, according to the protocol. The samples were also studied by Wester blot using an anti HA-tag PAR 2 monoclonal antibody.

TNF-α = experiment: LPS-induced TNF-α transcriptional expression in THP-1 cells (RT-PCR); assay type: cell-based, human
Protocol: (§3) Given that PAR2 is deeply implicated in the induction of proinflammatory cytokines, the ability of PPA in the inhibition of proinflammatory cytokines in a context simulating bacterial sepsis was evaluated. In FIGS. 3A and 3B the THP-1 cell line of monocytic origin was used, incubated with LPS ([…]), which in example 1 had induced an increase in the synthesis of endogenous PAR2. Cells were simultaneously treated with 1-PPA at a concentration of 1 ng/ml or 100 ng/ml or medium alone as control and incubated for 1 or 4 hours. The cell extracts were used to analyze the transcriptional expression of the cytokines TNF-α and IL-1β by RT-PCR.

IL-1β = experiment: LPS-induced IL-1β transcriptional expression in THP-1 cells (RT-PCR); assay type: cell-based, human
Protocol: as §3

platelet aggregation = experiment: Platelet aggregation, TRAP test, Multiplate analyzer, whole blood; assay type: cell-based; settings: TRAP-6, increasing concentrations of 1-PPA
Excerpt: The analysis of platelet function can be performed by the Multiplate® analyzer (Roche Diagnostics) which is a method based on impedance aggregometry and can be used to measure platelet function in whole blood in the presence or absence of inhibitors. In particular the TRAP test is an assay for the in vitro quantitative determination of platelet function triggered by thrombin receptor activating peptide-6 (TRAP-6) which is a potent platelet activator and stimulates platelet aggregation through the thrombin receptor PAR-1, this peptide has also been found capable of activating PAR2 (Cas #AS-24190-25, CliniScience), which can be activated by thrombin in the presence of thrombomodulin (Heuberger et al, Thrombosis Research 2019, 177:91-101).
Multiplate® Analyzer, Roche Diagnostics) was used, where the blood sample was analyzed alone or in presence of increasing concentrations of 1-PPA.

gouty arthritis = experiment: Mouse model of gouty arthritis (uric acid microcrystals in hind paw); assay type: in vivo, mice (C57BL6J)
Excerpt: To evaluate the inhibitory capacity of 1-PPA in pain perception, notoriously mediated by PAR2 as a receptor of peripheral nerve endings (Andrea S. Rothmeier & Wolfram Ruf. Semin Immunopathol, 2012; 34:133-149), an experimental model of inflammatory arthritis was used. In particular, a mouse model of gout was used by injecting microcrystals of uric acid subcutaneously into the plantar surface of the hind legs of mice (C57BL6J), followed by injection of 1-PPA at different concentrations in one hind leg, using the contralateral leg as a control. After a few hours, the microcrystal treatment induces swelling and edema at the injection site which reaches a peak of inflammation and pain at 48 hours and then resolves spontaneously.
To evaluate the intensity of pain, the electronic von Frey test was used, which involves recording the intensity of the stimulus that evokes a withdrawal reflex, after the application of the pain stimulus to the plantar surface of the hind leg.

LPS-induced sepsis = experiment: LPS-induced systemic sepsis model in mice; assay type: in vivo, C57BL/6 J mice; settings: LPS about 10 mg/kg intraperitoneal
Protocol: In vivo experiments are underway on models of systemic sepsis, in order to validate the protective effect of 1-PPA against the development of cytokine storm and septic shock with multiple organ failure, using C57BL/6 J mice. The first part of the study consists in the induction of sepsis through LPS and experimental treatment with 1-PPA.
The intraperitoneal administration with LPS (about 10 mg/kg, L4130, Sigma-Aldrich) associated with 1-PPA or alternatively with PBS, was carried out under anesthesia (Sevorane at 4% in medical oxygen) through the use of Fluovac (Harvard Instruments), dedicated for the anesthesia of small animals.
The time interval of 8 hours is considered the optimal interval for observing the onset of scientifically quantifiable sepsis in mice, and for evaluating the efficacy of a treatment aimed at inhibiting it by administering 1-PPA.
FIG. 6A illustrates the experimental design and the quantification of the degree of malaise using a score commonly used to determine the condition of the animal, where 0 refers to the normal condition and 5 refers to a pre-terminal condition. A score of 6 was attributed to the death of the animal.

HepG2 cell line = experiment: In vitro toxicity, real-time cell proliferation (XCelligence) in HepG2; assay type: cell-based
Excerpt: Real-time cell proliferation was monitored using the XCelligence tool (ACEA) and the results were expressed as Cell Index, which expresses the cell number at each point considered.

[4] = In vivo organ damage (liver, kidney) after 26 weeks of 1-PPA; parameters: species or system CC57/BL6 mice; settings: 0.07 and 0.7 μg/g/week, normal diet, serum
Protocol: The organ damage of the 1-PPA compound in vivo was also evaluated, considering the function of the liver and kidney, the main organs responsible for pharmacological catabolismln detail, the study included 2 groups of CC57/BL6 mice (4 mice/group, age 45 days), inoculated with 1-PPA at concentrations of 0.07 and 0.7 μg/g/week), for a time period of 26 weeks. All animals were fed a normal diet throughout the study. Before starting the 1-PPA inoculation, a basal blood sample was taken from all animals and a second sample was taken from the sacrifice.
At serum level, alanine aminotransferase (ALT) as an indicator of hepatic cytolytic damage, bilirubin as an indicator of hepatic cholestasis, blood urea nitrogen (Blood urea nitrogen, BUN) as an indicator of renal damage were evaluated. The results were expressed as the ratio between the value of the final sampling and that of the basal sampling.

chronic kidney disease = experiment: CKD induced by folic acid and treatment with 1-PPA; assay type: in vivo, mouse; settings: FA 125 mg/kg i.p., 1-PPA i.p. 0.1 μg/g from third day, thirtieth day, expected
Protocol: A single intraperitoneal injection of FA (dosage of 125 mg/kg) induces renal damage which reproduces the analogous syndrome in man after 30 days. To ensure maximum precision and least distress for the animal, the 1-PPA inoculation is performed by anesthetizing the mouse for a few minutes using deep inhalation surgical anesthesia using 4% Sevorane in medical oxygen administered through a Fluovac device (Harvard Instruments) specifically dedicated to the anesthesia of laboratory rodents.
Treatment with 1-PPA (i.p. injection at a concentration of 0.1 μg/g of body weight) begins from the third day after the induction of renal damage (groups FA+1-PPA). Control groups are treated with PBS (FA+PBS groups).
Renal function is monitored weekly by semiquantitative evaluation of proteinuria using multistix (Siemens). For urine collection, the […] is placed in a carefully cleaned plexiglass tray, in the presence of dedicated environmental enrichment. After 30 days from the induction of the renal damage the animals are sacrificed by cervical dislocation or excess anesthesia. Peripheral blood is collected by intracardiac puncture, and kidneys and liver are sampled in formalin and at −80° C. for subsequent evaluations of IHC and gene expression. […]

[5] = THP-1, 1-PPA 1 ng/ml or 100 ng/ml, 1 or 4 hours

In the case of O=C(O)CCN1CCCCC1 [1-PPA, 1-Piperidine Propionic Acid], the “PAR2 mRNA expression” value (PAR2 [1]; THP-1 cells, LPS 1 ng/ml, 2 hours, 1-PPA 1 ng/ml and 100 ng/ml) is reported as “marked reduction of its expression”, the “concentration capable of inhibiting the synthesis of PAR2” value (PAR2 [1]; THP-1 line, PAR2 overexpression conditions) is reported as 1 ng/mL and the “concentration capable of inhibiting the synthesis of PAR2” value (PAR2 [2]; HepG2 line, PAR2 overexpression conditions) is reported as 1 ng/mL. The “PAR2 mRNA expression” value (PAR2 [2]; HepG2 transiently transfected with human PAR2 plasmid, increasing concentrations of 1-PPA) was “effective inhibition of PAR2 mRNA”, the “thermal stabilization of PAR2 protein (CETSA)” value (PAR2 [3]) was “thermal stability of the PAR2 protein” and the “TNF-α transcriptional expression induced by LPS” value (TNF-α; [5]) was “effectively blocked”. For the same compound, the “concentration at which inhibitory effect is achieved” value (TNF-α; THP-1, LPS) was 1 ng/mL, the “IL-1β transcriptional expression induced by LPS” value (IL-1β; [5]) was “effectively blocked” and the “concentration at which inhibitory effect is achieved” value (IL-1β; THP-1, LPS) was 1 ng/mL. For the same compound, the “control of IL-1β synthesis over time” value (IL-1β; lowest 1-PPA concentration (1 ng/ml), persisting LPS induction) was “still more effective in controlling the synthesis”, the platelet aggregation (platelet aggregation) was “inhibiting platelet aggregation in a dose-dependent manner” and the “stimulus to induce the withdrawal reflex (electronic von Frey test)” value (gouty arthritis; compared to mice injected only with microcrystals) was “significantly greater stimulus”. The “paw edema and redness (confirmed by paw circumference)” value (gouty arthritis; urate microcrystals subcutaneously in plantar surface, 1-PPA injected in hind leg, versus not treated) was “visually less edematous and reddened”, the “degree of malaise score (0 normal, 5 pre-terminal, 6 death)” value (LPS-induced sepsis; 1-PPA 3 μg, maximum reached) was no more than 2 and the “protection from LPS-induced sepsis” value (LPS-induced sepsis; low concentrations of 1-PPA) was “protected mice from LPS-induced sepsis”. For the same compound, the “non-toxic concentration relative to biologically effective dose” value (HepG2 cell line; 5 μg/ml versus biologically effective dose) was “at least 50 times”, the “cellular toxic effect (Cell Index)” value (HepG2 cell line; HepG2, 5 μg/ml) was “did not demonstrate a cellular toxic effect” and the “alanine aminotransferase (ALT), ratio final/basal sampling” value [4] was less than 2 ×normal values. The “bilirubin, ratio final/basal sampling” value [4] was less than 2 ×normal values, the “blood urea nitrogen (BUN), ratio final/basal sampling” value [4] was less than 2 ×normal values and the “mean value of proteinuria measured in the urine” value (chronic kidney disease) was “moderate residual damage”.
